This note sets out measurements from PMC11852496, “A Modular Customizable Ligand-Conjugate (LC) System Targeting Ghrelin O-Acyltransferase” (Biomolecules, 2025).

Several values for one entry are separate records, joined by “and”; a condition that tells them apart may be missing. Equal entries are not always repeated. Where two headings read alike, the source gives them in different places. Non-standard residues stand in square brackets, D forms with d. Residues, ends and D or L forms follow the SMILES beside them. *: point of attachment. X4 = CN1C(=C/C=C/C=C/C2=[N+](CCCCCC(=O)NCCCn3cc(COC[C@H]4CC[C@H](CN5C(=O)CC(*)C5=O)CC4)nn3)c3ccc(S(=O)(=O)[O-])cc3C2(C)C)C(C)(C)c2cc(S(=O)(=O)O)ccc21; X2 = N=c1ccc2c(-c3ccc(C(=O)NCCCn4cc(COC[C@H]5CC[C@H](CN6C(=O)CC(*)C6=O)CC5)nn4)cc3C(=O)O)c3ccc(N)c(S(=O)(=O)O)c3oc-2c1S(=O)(=O)O; X5 = COc1cc(/N=N/c2ccc(C)cc2[N+](=O)[O-])c(C)cc1/N=N/c1ccc(N(C)CCCC(=O)NCCn2cc(COC[C@H]3CC[C@H](CN4C(=O)CC(*)C4=O)CC3)nn2)cc1; X3 = O=C(NCCCn1cc(COC[C@H]2CC[C@H](CN3C(=O)CC(*)C3=O)CC2)nn1)c1ccc2c(c1)C(=O)OC21c2ccc(O)cc2Oc2cc(O)ccc21; X7 = C#CCOC[C@H]1CC[C@H](CN2C(=O)CC(*)C2=O)CC1; 1Nal = N[CH](Cc1cccc2ccccc12)C(=O)O; X1 = O=C1NC2CSC(CCCCC(=O)*)C2N1; PEG3 = NCCOCCOCCOCCC(=O)O; Dap = NC[CH](N)C(=O)O Some results are limits rather than exact numbers.

The target of this test is T1, hGOAT (human ghrelin O-acyltransferase) (Homo sapiens, UniProt Q96T53).
T1 construct: made in house; host or cells: Sf9 insect cells (membrane/microsomal fraction)
T1 sequence (Q96T53 1-435): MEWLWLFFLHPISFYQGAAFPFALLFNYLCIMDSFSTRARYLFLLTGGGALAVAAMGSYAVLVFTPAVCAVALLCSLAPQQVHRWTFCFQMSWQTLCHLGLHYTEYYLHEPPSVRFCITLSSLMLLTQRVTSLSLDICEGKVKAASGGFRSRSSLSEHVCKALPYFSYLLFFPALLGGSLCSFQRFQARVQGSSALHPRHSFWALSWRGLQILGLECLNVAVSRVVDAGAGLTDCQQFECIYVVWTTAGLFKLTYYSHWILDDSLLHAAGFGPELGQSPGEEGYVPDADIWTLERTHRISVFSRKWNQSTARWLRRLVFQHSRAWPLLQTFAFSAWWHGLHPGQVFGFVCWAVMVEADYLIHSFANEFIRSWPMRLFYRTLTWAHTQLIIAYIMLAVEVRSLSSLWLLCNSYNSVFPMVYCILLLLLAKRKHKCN
Nature of the test: GOAT ghrelin acylation (octanoylation) inhibition assay, membrane fraction of Sf9 cells expressing hGOAT, HPLC readout. It is filed as biochemical. The conditions noted are these: for IC50: average of three independent trials; for IC50 relative to parent ligand 5: fold change relative to ligand 5; for change in binding potency with PEG3 linker B compared to linker A: primed ligand (linker B) relative to unprimed ligand (linker A). Here is the method: The microsomal fraction containing hGOAT for the ligand-binding studies by IC50 determination was prepared according to published protocols. For the GOAT inhibition assay, serial dilutions of 0, 0.15, 0.5, 1, 5, 15, and 50 µM concentrations were prepared in 50% acetonitrile for each ligand used. The membrane fractions from the Sf9 cells expressing GOAT were first thawed on ice then passed through an 18-gauge needle 10 times to homogenize them. The assays were performed with approximately 30 µg of the membrane protein as determined through a Bradford assay. The standard reaction conditions contained 50 mM HEPES pH 7.0, 1 µM MAFP, 30 µg of membrane protein, and ultrapure water. The ligands were added to the reaction mixtures and incubated for 30 min at room temperature protected from light prior to the reaction initiation. The reactions were initiated by octanoyl CoA (300 µM final concentration) and GSSFLCAcdan (0.3 µM final concentration) in a total reaction volume of 50 µL. […] The reactions were stopped with 50 µL of 20% acetic acid in isopropanol. The excess membrane fraction was precipitated with 16.7 µL of 40% trichloroacetic acid (TCA) followed by a 1000× g centrifugation for 2 min. The supernatant was then analyzed via reverse-phase HPLC in 100 µL samples as previously described. The inhibition trials were run in triplicate, with the reported IC50 values representing the average of at least three trials. The IC50 values for all LCs are reported in Supplemental Table S2.
The assays were analyzed on reverse-phase HPLC (Zorbax Eclipse XDB column, 4.6 × 150 mm) using a solvent gradient from […] in aqueous 0.05% TFA over 5 min at a flow rate of 1 mL/min, followed by a gradient of […] in 0.05% TFA over 1 min, 100% acetonitrile for 5 min, and a gradient of 100% acetonitrile to 30% acetonitrile in 0.05% TFA for 5 min. The total time for each run was 16 min. The peptides were detected by the attached acrylodan label with the UV absorbance at 360 nm and fluorescence (λex = 360 nm, λem = 485 nm). The octanoylated peptide typically eluted at around 7.5 min, with the unreacted peptide eluting at around 2.5 min. Chemstation for LC (Agilent Technologies) was used for peak integration.
The peak integrations were used to determine the percent conversion in the presence of either the inhibitor (ligand, LC) or the vehicle (50% acetonitrile). The percent activity was calculated using Equation (1):(1) % peptide octanoylationa=fluorescence of octanoylated peptide/total peptide fluorescence,
IC50 values were determined by fitting Equation (2) to the plot of % activity against inhibitor concentration:(2) % activity=% vehicle1−Inhibitor/Inhibitor+IC50
[formula] Scheme 1 The GOAT inhibition assay for determining ligand binding. The octanoylation of a fluorescently labeled ghrelin-mimetic peptide substrate is inhibited by LC binding, with GOAT octanoylation activity and inhibition determined as described in the Section 2.

The mark [1] stands for this setting: ± one standard deviation, read-out: IC50 against hGOAT.

A word on the IC50: it is the concentration at which inhibition is half-maximal. For the compound `CC(C)C[C@H](NC(=O)[C@H](Cc1cccc2ccccc12)NC(=O)[C@H](CN)NC(=O)[C@H](CO)NC(=O)CN)C(=O)N[C@@H](CO)C(=O)N1CCC[C@H]1C(=O)N[C@H](C(=O)NCCOCCOCCOCCC(=O)N[C@@H](CSC1CC(=O)N(C[C@H]2CC[C@H](COCc3cn(CCCNC(=O)CCCCC[N+]4=C(/C=C/C=C/C=C5N(C)c6ccc(S(=O)(=O)O)cc6C5(C)C)C(C)(C)c5cc(S(=O)(=O)[O-])ccc54)nn3)CC2)C1=O)C(N)=O)[C@@H](C)O` (stereo partly drawn) [Ligand 9, H-GS-Dap-Nal-1-LSPT-Mini-PEG3a-C-Linker-SulfoCy5azide] (H-GS[Dap][1Nal]LSPT[PEG3]C(X4)-NH2), the “IC50 relative to parent ligand 5” value is “six- to eight-fold higher”. Besides, the IC50 under setting [1] came to 84.4 ± 11.5 nM.

For `CC(C)C[C@H](NC(=O)[C@H](Cc1cccc2ccccc12)NC(=O)[C@H](CN)NC(=O)[C@H](CO)NC(=O)CN)C(=O)N[C@@H](CO)C(=O)N1CCC[C@H]1C(=O)N[C@H](C(=O)NCCOCCOCCOCCC(=O)N[C@@H](CCn1cc(COC[C@H]2CC[C@H](CN3C(=O)C=CC3=O)CC2)nn1)C(N)=O)[C@@H](C)O` [Ligand 6, H-GS-Dap-Nal-1-LSPT-Mini-PEG3a-AHA-Linker], the IC50 runs as follows: (apparent IC50, read-out: IC50 against hGOAT) > 1000 nM and 1000 nM; under setting [1], 1050 ± 79.5 nM.

`COc1cc2cc(c1Cl)N(C)C(=O)C[C@H](OC(=O)[C@H](C)N(C)C(=O)CCSC1CC(=O)N(C[C@H]3CC[C@H](COCc4cn(CC[C@H](NC(=O)CCOCCOCCOCCNC(=O)[C@@H](NC(=O)[C@@H]5CCCN5C(=O)[C@H](CO)NC(=O)[C@H](CC(C)C)NC(=O)[C@H](Cc5cccc6ccccc56)NC(=O)[C@H](CN)NC(=O)[C@H](CO)NC(=O)CN)[C@@H](C)O)C(N)=O)nn4)CC3)C1=O)[C@]1(C)O[C@H]1[C@H](C)[C@@H]1C[C@@](O)(NC(=O)O1)[C@H](OC)/C=C/C=C(\C)C2` (stereo partly drawn) [Ligand 14, H-GS-Dap-Nal-1-LSPT-Mini-PEG3a-AHA-Linker-Mertansine]: for the setting “IC50 against hGOAT, ± one standard deviation”, the IC50 was 18.8 nM and ~20 nM.

On to `C#CCOC[C@H]1CC[C@H](CN2C(=O)CC(SC[C@H](NC(=O)CCOCCOCCOCCNC(=O)[C@@H](NC(=O)[C@@H]3CCCN3C(=O)[C@H](CO)NC(=O)[C@H](CC(C)C)NC(=O)[C@H](Cc3cccc4ccccc34)NC(=O)[C@H](CN)NC(=O)[C@H](CO)NC(=O)CN)[C@@H](C)O)C(N)=O)C2=O)CC1` (stereo partly drawn) [Ligand 5, H-GS-Dap-Nal-1-LSPT-Mini-PEG3a-C-Linker] (H-GS[Dap][1Nal]LSPT[PEG3]C(X7)-NH2), for which the IC50 under setting [1] came out at 13 ± 1 nM.

For `CC(C)C[C@H](NC(=O)[C@H](Cc1cccc2ccccc12)NC(=O)[C@H](CN)NC(=O)[C@H](CO)NC(=O)CN)C(=O)N[C@@H](CO)C(=O)N1CCC[C@H]1C(=O)N[C@H](C(=O)NCCOCCOCCOCCC(=O)N[C@@H](CSC1CC(=O)N(CCNC(=O)CCCCC[N+]2=C(/C=C/C=C/C=C3N(C)c4ccc(S(=O)(=O)O)cc4C3(C)C)C(C)(C)c3cc(S(=O)(=O)[O-])ccc32)C1=O)C(N)=O)[C@@H](C)O` (stereo partly drawn) [Ligand 16], the IC50 under setting [1] is 56.8 ± 8.6 nM.

Turning to `CC(C)CC(NC(=O)C(Cc1cccc2ccccc12)NC(=O)C(CN)NC(=O)C(CO)NC(=O)CN)C(=O)NC(CO)C(=O)N1CCCC1C(=O)NC(C(=O)NCCOCCOCCOCCC(=O)NC(CS)C(N)=O)C(C)O` (stereo not drawn) [Ligand 3] (H-GS[Dap][1Nal]LSPT[PEG3]C-NH2; configuration not given here), under setting [1], the IC50 is 28.9 nM and 29 nM.

In the case of `COc1cc(/N=N/c2ccc(C)cc2[N+](=O)[O-])c(C)cc1/N=N/c1ccc(N(C)CCCC(=O)NCCn2cc(COC[C@H]3CC[C@H](CN4C(=O)CC(SC[C@H](NC(=O)CCOCCOCCOCCNC(=O)[C@@H](NC(=O)[C@@H]5CCCN5C(=O)[C@H](CO)NC(=O)[C@H](CC(C)C)NC(=O)[C@H](Cc5cccc6ccccc56)NC(=O)[C@H](CN)NC(=O)[C@H](CO)NC(=O)CN)[C@@H](C)O)C(N)=O)C4=O)CC3)nn2)cc1` (stereo partly drawn) [Ligand 12, H-GS-Dap-Nal-1-LSPT-Mini-PEG3-C-Linker-AzoDye1azide] (H-GS[Dap][1Nal]LSPT[PEG3]C(X5)-NH2), under setting [1], the IC50 is 5.9 ± 1.7 nM.

`CC(C)C[C@H](NC(=O)[C@H](Cc1cccc2ccccc12)NC(=O)[C@H](CN)NC(=O)[C@H](CO)NC(=O)CN)C(=O)N[C@@H](CO)C(=O)N1CCC[C@H]1C(=O)N[C@H](C(=O)NCCOCCOCCOCCC(=O)N[C@@H](CSC1CC(=O)N(C[C@H]2CC[C@H](COCc3cn(CCCNC(=O)c4ccc5c(c4)C(=O)OC54c5ccc(O)cc5Oc5cc(O)ccc54)nn3)CC2)C1=O)C(N)=O)[C@@H](C)O` (stereo partly drawn) [Ligand 8, H-GS-Dap-Nal-1-LSPT-Mini-PEG3-C-Linker-FAM5azide] (H-GS[Dap][1Nal]LSPT[PEG3]C(X3)-NH2): the “IC50 relative to parent ligand 5” value is given as “six- to eight-fold higher”. Also, under setting [1], the IC50 turned out to be 73.8 ± 4.8 nM.

`COc1cc(/N=N/c2ccc(C)cc2[N+](=O)[O-])c(C)cc1/N=N/c1ccc(N(C)CCCC(=O)NCc2cn(CC[C@H](NC(=O)CCOCCOCCOCCNC(=O)[C@@H](NC(=O)[C@@H]3CCCN3C(=O)[C@H](CO)NC(=O)[C@H](CC(C)C)NC(=O)[C@H](Cc3cccc4ccccc34)NC(=O)[C@H](CN)NC(=O)[C@H](CO)NC(=O)CN)[C@@H](C)O)C(N)=O)nn2)cc1` [Ligand 17, H-GS-Dap-Nal-1-LSPT-Mini-PEG3a-AHA-AzoDye1alkyne]: the half-inhibitory concentration (IC50) under setting [1] came to 3.9 ± 0.4 nM.

In the case of `CC(C)CC(NC(=O)C(Cc1cccc2ccccc12)NC(=O)C(CN)NC(=O)C(CO)NC(=O)CN)C(=O)NC(CO)C(=O)N1CCCC1C(=O)NC(C(=O)NCCOCCOCCOCCC(=O)NC(CCCCNC(=O)CCCCC1SCC2NC(=O)NC21)C(N)=O)C(C)O` (stereo not drawn) [Ligand 13] (H-GS[Dap][1Nal]LSPT[PEG3]K(X1)-NH2; configuration not given here), the IC50 under setting [1] amounted to 51.8 ± 5.7 nM.

With “H-GS-Dap-Nal-1-LSPT-Mini-PEG3b-C-SulfoCy5maleimide [Ligand 16’]”, the “change in binding potency with PEG3 linker B compared to linker A” value was “approximately two-fold increase”.

On to “H-GS-Dap-Nal-1-LSPT-Mini-PEG3b-C-NH2 [Ligand 3’]”, for which the “change in binding potency with PEG3 linker B compared to linker A” value is given as “approximately four-fold drop”.

Regarding `CC(C)C[C@H](NC(=O)[C@H](Cc1cccc2ccccc12)NC(=O)[C@H](CN)NC(=O)[C@H](CO)NC(=O)CN)C(=O)N[C@@H](CO)C(=O)N1CCC[C@H]1C(=O)N[C@H](C(=O)NCCOCCOCCOCCC(=O)N[C@@H](CSC1CC(=O)N(C[C@H]2CC[C@H](COCc3cn(CCCNC(=O)c4ccc(-c5c6ccc(=N)c(S(=O)(=O)O)c-6oc6c(S(=O)(=O)O)c(N)ccc56)c(C(=O)O)c4)nn3)CC2)C1=O)C(N)=O)[C@@H](C)O` (stereo partly drawn) [Ligand 7, H-GS-Dap-Nal-1-LSPT-Mini-PEG3a-C-Linker-AF488azide] (H-GS[Dap][1Nal]LSPT[PEG3]C(X2)-NH2), the “IC50 relative to parent ligand 5” value was “six- to eight-fold higher”.

Take “H-GS-Dap-Nal-1-LSPT-Mini-PEG3a-C-Linker-TideQuencher2azide [Ligand 11]”: the “IC50 relative to parent ligand 5” value was “approximately two-fold higher”. Also, under setting [1], the IC50 was 25.7 ± 6.2 nM.
